In the supplement of paper PMC11061612:

How the values were obtained:
A673 (Ewing's Sarcoma) [1] = assay: Bliss excess, mean over the matrix (fraction); higher = more synergy
How it was run: (§1)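 Bliss excess equals the observed combination effect minus the expected value EA + EB − EA·EB, where EA and EB are the effects of each agent alone. Combination Emax is the second-highest inhibition within the matrix. Inhibition was scaled from CellTiter-Glo 2.0 luminescence, with 0 set by vehicle wells and 1 by blank wells, after 72 hours of two-drug dosing of cells plated in 1536-well plates.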

[2] = tested on: Hs-746T (Gastric Carcinoma); assay: as above
How it was run: as §1

[3] = tested on: LNZTA3WT4 (Low Grade Glioma); assay: as above
How it was run: as §1

[4] = tested on: NCI-H209 (Small Cell Lung Carcinoma); assay: as above
How it was run: as §1

[5] = tested on: SW1573 (Lung Adenocarcinoma); assay: as above
How it was run: as §1

A673 (Ewing's Sarcoma) [6] = assay: combination Emax (second highest fraction inhibited in the dose matrix, 72 h); higher = more inhibition; extreme values may be limits of the assay
How it was run: as §1

[7] = tested on: BE-13 (T-Lymphoblastic Leukemia); assay: as above
How it was run: as §1

CAL-72 (Osteosarcoma) = assay: as above
How it was run: as §1

[8] = tested on: ESS-1 (Other Solid Carcinomas); assay: as above
How it was run: as §1

EW-11 (Ewing's Sarcoma) = assay: as above
How it was run: as §1

[9] = tested on: HuCCT1 (Biliary Tract Carcinoma); assay: as above
How it was run: as §1

[10] = tested on: KMRC-20 (Kidney Carcinoma); assay: as above
How it was run: as §1

[11] = tested on: KYAE-1 (Esophageal Adenocarcinoma); assay: as above
How it was run: as §1

[12] = tested on: LS-123 (Colorectal Carcinoma); assay: as above
How it was run: as §1

NCI-H2052 (Mesothelioma) = assay: as above
How it was run: as §1

[13] = tested on: NUGC-4 (Gastric Carcinoma); assay: as above
How it was run: as §1

[14] = tested on: OE21 (Esophageal Squamous Cell Carcinoma); assay: as above
How it was run: as §1

[15] = tested on: SAS (Oral Cavity Carcinoma); assay: as above
How it was run: as §1

[16] = tested on: SW1710 (Bladder Carcinoma); assay: as above
How it was run: as §1

[17] = tested on: WSU-NHL (B-Cell Non-Hodgkin's Lymphoma); assay: as above
How it was run: as §1

| Compound | Bliss excess (A673 (Ewing's Sarcoma) [1]) | Bliss excess [2] | Bliss excess [3] | Bliss excess [4] | Bliss excess [5] | combination Emax (A673 (Ewing's Sarcoma) [6]) | combination Emax [7] | combination Emax (CAL-72 (Osteosarcoma)) | combination Emax [8] | combination Emax (EW-11 (Ewing's Sarcoma)) | combination Emax [9] | combination Emax [10] | combination Emax [11] | combination Emax [12] | combination Emax (NCI-H2052 (Mesothelioma)) | combination Emax [13] | combination Emax [14] | combination Emax [15] | combination Emax [16] | combination Emax [17] |
| --- | --- | --- | --- | --- | --- | --- | --- | --- | --- | --- | --- | --- | --- | --- | --- | --- | --- | --- | --- | --- |
| CN(C)CCCOc1ccc(-c2ccc3ncc4c(c3c2)n(C2CCOCC2)c(=O)n4C)cn1 [AZD0156] + C[C@@H]1COCCN1C2=NC(=NC(=C2)C3(CC3)[S@](=N)(=O)C)C4=C5C=CNC5=NC=C4 [AZD6738] (first compound max 1 µM, 7x7, partner max 10 µM) | 0.0153 | -0.0211 | -0.0016 | 0.0711 | -0.0315 | 0.907 | 0.723 | 0.889 | 0.989 | 0.668 | 0.796 | 0.65 | 0.0979 | 0.644 | 0.399 | 0.639 | 0.696 | 0.855 | 0.509 | 0.998 |
| CN(C)CCCOc1ccc(-c2ccc3ncc4c(c3c2)n(C2CCOCC2)c(=O)n4C)cn1 [AZD0156] + O=C(c1cc(Cc2n[nH]c(=O)c3ccccc23)ccc1F)N1CCN(C(=O)C2CC2)CC1 [Olaparib] (first compound max 3 µM, partner max 3 µM) | 0.16 | 0.0802 | -0.0184 | 0.163 | -0.0002 | 0.653 | 0.428 | 0.416 | 0.489 | 0.539 | 0.202 | 0.189 | 0.271 | 0.37 | 0.251 | 0.286 | 0.283 | 0.212 | 0.0777 | 0.879 |
| C=CCn1c(=O)c2cnc(Nc3ccc(N4CCN(C)CC4)cc3)nc2n1-c1cccc(C(C)(C)O)n1 [AZD1775] + C[C@@H]1COCCN1C2=NC(=NC(=C2)C3(CC3)[S@](=N)(=O)C)C4=C5C=CNC5=NC=C4 [AZD6738] (first compound max 1 µM, partner max 10 µM) | 0.0115 | -0.0095 | 0.0076 | 0.0422 | 0.0334 | 0.907 | 1 | 0.93 | 1 | 0.72 | 0.861 | 0.763 | 0.588 | 0.892 | 0.488 | 0.593 | 0.746 | 0.908 | 0.713 | 1 |
| C=CCn1c(=O)c2cnc(Nc3ccc(N4CCN(C)CC4)cc3)nc2n1-c1cccc(C(C)(C)O)n1 [AZD1775] + O=C(c1cc(Cc2n[nH]c(=O)c3ccccc23)ccc1F)N1CCN(C(=O)C2CC2)CC1 [Olaparib] (first compound max 1 µM, partner max 10 µM) | 0.0042 | -0.0594 | -0.0395 | -0.0579 | -0.0268 | 0.822 | 0.984 | 0.756 | 1 | 0.599 | 0.818 | 0.567 | 0.468 | 0.644 | 0.467 | 0.302 | 0.498 | 0.577 | 0.383 | 1 |
| CCN(CCO)CCCOc1ccc2c(Nc3cc(CC(=O)Nc4cccc(F)c4)[nH]n3)ncnc2c1 [AZD2811] + C=CCn1c(=O)c2cnc(Nc3ccc(N4CCN(C)CC4)cc3)nc2n1-c1cccc(C(C)(C)O)n1 [AZD1775] (first compound max 1 µM, partner max 1 µM) | -0.0838 | 0.0312 | -0.0501 | 0.089 | 0.0297 | 0.708 | 0.982 | 0.728 | 1 | 0.469 | 0.739 | 0.6 | 0.395 | 0.68 | 0.38 | 0.227 | 0.468 | 0.43 | 0.317 | 1 |
| CCN(CCO)CCCOc1ccc2c(Nc3cc(CC(=O)Nc4cccc(F)c4)[nH]n3)ncnc2c1 [AZD2811] + C[C@@H]1COCCN1C2=NC(=NC(=C2)C3(CC3)[S@](=N)(=O)C)C4=C5C=CNC5=NC=C4 [AZD6738] (first compound max 1 µM, 7x7, partner max 10 µM) | -0.0587 | -0.0706 | -0.0315 | 0.0731 | -0.0394 | 0.852 | 0.732 | 0.843 | 0.97 | 0.686 | 0.773 | 0.596 | 0.122 | 0.632 | 0.359 | 0.547 | 0.666 | 0.83 | 0.398 | 0.967 |
